Assay results: US20230012570A1, “BICYCLIC COMPOUND USED AS SELECTIVE ANDROGEN RECEPTOR MODULATOR” (MEDSHINE DISCOVERY INC., priority 2019, published 2023)

Target: T1, androgen receptor (AR) (Homo sapiens, UniProt P10275)
T1 sequence (P10275 1-920): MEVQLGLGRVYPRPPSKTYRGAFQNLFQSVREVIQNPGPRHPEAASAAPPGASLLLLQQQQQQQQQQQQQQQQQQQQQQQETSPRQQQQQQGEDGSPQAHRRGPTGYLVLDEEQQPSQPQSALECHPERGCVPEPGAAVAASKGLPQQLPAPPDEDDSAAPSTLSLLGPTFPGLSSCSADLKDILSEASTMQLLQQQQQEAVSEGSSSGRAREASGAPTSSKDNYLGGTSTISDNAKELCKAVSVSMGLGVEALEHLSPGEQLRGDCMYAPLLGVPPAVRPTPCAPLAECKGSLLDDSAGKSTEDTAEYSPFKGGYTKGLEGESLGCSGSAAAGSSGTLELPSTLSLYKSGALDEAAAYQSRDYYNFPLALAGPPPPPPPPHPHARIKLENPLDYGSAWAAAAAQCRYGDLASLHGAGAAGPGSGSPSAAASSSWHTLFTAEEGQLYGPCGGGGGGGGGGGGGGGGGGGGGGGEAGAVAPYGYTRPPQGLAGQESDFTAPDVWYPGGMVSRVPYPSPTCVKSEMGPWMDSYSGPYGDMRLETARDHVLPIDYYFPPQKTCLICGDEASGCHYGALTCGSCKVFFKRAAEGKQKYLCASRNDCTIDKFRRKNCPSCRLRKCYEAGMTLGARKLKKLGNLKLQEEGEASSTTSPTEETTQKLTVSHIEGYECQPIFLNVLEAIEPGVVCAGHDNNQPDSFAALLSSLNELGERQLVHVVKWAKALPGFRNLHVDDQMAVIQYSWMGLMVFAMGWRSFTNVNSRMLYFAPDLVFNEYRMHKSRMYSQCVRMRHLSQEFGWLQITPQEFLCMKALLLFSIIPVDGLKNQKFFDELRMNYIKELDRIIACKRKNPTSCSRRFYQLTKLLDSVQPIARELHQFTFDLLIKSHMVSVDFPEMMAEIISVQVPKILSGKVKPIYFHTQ
Experiment: Agonistic effect of test compounds on androgen receptor (AR), LiveBLAzer FRET reporter cell assay
Format: cell-based
Method: Experimental Embodiment 1: Agonistic Effect of Test Compounds on Androgen Receptor (AR)
1. Preparation of Compounds, Placing in Plates:
1.1 Preparation of compounds: the test compounds were diluted to the working concentration, and each compound was diluted by 4 times with Echo for 10 concentration gradients, and the compounds were added to a 384-well cell plate according to the microplate layout diagram, with 200 nL per well;
1.2 AR cell assay medium: 87% Opti-MEM (reduced serum medium), 10% Dialyzed FBS (dialyzed fetal bovine serum), 1% NEAA (non-essential amino acids), 1% sodium pyruvate and 1% penicillin-streptomycin;
1.3 culture medium, trypsin and Dulbecco's phosphate buffer were preheated in a 37° C. water bath;
1.4 the original medium in the cell culture flask was removed, and the cells were washed once with 6 mL of Dulbecco's phosphate buffer;
1.5 3.5 mL of trypsin was added to the cell culture flask, and the flask was gently shaken to make the trypsin fully contact with the cells, the trypsin was removed; after aspirating the trypsin, the culture flask was placed in a 37° C. incubator containing 5% CO2 for about 1 minute;
1.6 the cells were resuspended with 10 mL of cell detection medium, and about 0.8 mL of cell suspension was taken out for counting (ViCell XR)
1.7 the cell suspension was diluted with culture medium to 2.5×10^5 cells per mL;
1.8 40 !IL of cell suspension was added to each well of the cell plate, and 40 μL of cell culture medium was added to the other wells, and the cells were incubated in a 37° C. incubator containing 5% CO2 for 16 hours.
2. Reading the Board and Analyzing Data:
2.1 Preparation of solution A: 182 μL of DMSO was added to 200 μg of LiveBLAzer™-FRET B/G/g substrate (CCF4-AM). The solution A was packaged and stored in a refrigerator at −20° C.;
2.2 preparation of 6×substrate buffer: 15 μL of solution A was added to 150 μL of solution B, and the mixture was vortexed evenly, then 2335 μL of solution C was added to the above solution and vortexed evenly;
2.3 the cell culture plate was taken out, and 8μL of 6×substrate buffer was added to each well, shaken for 1 minute, and centrifuged at 1000 rpm for 10 seconds; after sealing the membrane, the cells were incubated at 23° C. for 2 hours, and the plate was read with Envision, and the curve EC50 value was fitted by Prism software.

N#Cc1ccc(N2CC3CC3C2C(O)C(F)(F)F)cc1Cl (single isomer, unassigned) [Compound 3A]
EC50: 0.81 nM
